The numbers were not newly measured in patent US20050203105A1, “Composition and method for controlling alcohol-induced facial flushing in susceptible humans” (priority 2003, published 2005), which cites them from elsewhere.

Like-named read-outs stand apart in the source and are kept apart here.

One data set concerns QT interval. The following applies: in vivo.
For data set [1] the following is noted: for time to peak plasma levels: oral.
The target in a further data set is H1 receptor (Homo sapiens, UniProt P35367).
Sequence of H1 receptor (P35367 whole entry): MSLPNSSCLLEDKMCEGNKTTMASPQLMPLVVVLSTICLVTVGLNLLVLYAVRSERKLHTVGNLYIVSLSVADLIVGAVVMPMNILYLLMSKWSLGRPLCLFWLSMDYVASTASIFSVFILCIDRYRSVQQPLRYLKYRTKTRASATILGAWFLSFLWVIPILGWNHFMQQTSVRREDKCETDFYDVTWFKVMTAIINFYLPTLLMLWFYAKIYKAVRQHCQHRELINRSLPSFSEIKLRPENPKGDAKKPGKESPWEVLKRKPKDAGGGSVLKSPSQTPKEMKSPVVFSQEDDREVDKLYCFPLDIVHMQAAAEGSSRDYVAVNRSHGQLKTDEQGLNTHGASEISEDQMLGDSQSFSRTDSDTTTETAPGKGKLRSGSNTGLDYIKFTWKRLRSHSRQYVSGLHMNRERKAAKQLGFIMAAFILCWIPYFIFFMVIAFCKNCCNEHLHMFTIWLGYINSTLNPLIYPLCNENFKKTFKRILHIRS
The test system of the next data set is muscarinic receptors. Set-up: key: +++++ = Very high; +++ = high; ++ = moderate; + = low; ± = low to none.
In data set [2] the test system is flushing responses to red wine, chocolate and hot water. The following applies: one patient with carcinoid syndrome; two weeks of oral prior treatment.
For data set [3], the system named is alcohol-induced flushing. The following applies: for rise in skin oxygen tension after sherry: oral, 30 minutes before 30-50 ml of sherry.
For data set [4] the following is noted: for Half-life: increased in renal impairment (cimetidine: also hepatic impairment and the elderly); for Elimination, Urine, Unchanged, Oral / effect of food on absorption: oral.
For data set [5] the following is noted: given with an MAOI.
Data set [6] deals with potassium rectifier currents.
In data set [7] the test system is alcohol-induced flushing. The conditions noted are these: for Facial flushing: 0.64 gm orally one hour before ethanol.
The conditions of data set [8]: dose range of 10 to 40 mg.
Data set [9] relates to alcohol-induced rosacea flushing. The following applies: subcutaneous pretreatment; 360 ml of 6% ethanol; patients with rosacea.
The subject of another data set is ethanol intoxication. The conditions noted are these: intravenous.

On to `COc1ccc(CCN2CCC(Nc3nc4ccccc4n3Cc3ccc(F)cc3)CC2)cc1` [Astemizole], for which the “QT prolongation, ventricular arrhythmias, torsade de pointes” value with QT interval was “can cause QT interval prolongation/ventricular arrhythmias”. Further, the “half-life, distribution phase” value in [1] (biphasic) was 20 h. Further, the protein bound in data set [1] (in vivo) is given as 96.7%. Also, in [1], the “time to peak plasma levels” value was no more than 1 h. Further, in data set [1] (with food), the “reduction of absorption when taken with food” value was 60%.
In the case of `CN1CCC(=C2c3ccccc3CCc3cccnc32)CC1` [Azatadine], on H1 receptor, the Antihistaminic activity entry is “++”. In addition, in the data set with muscarinic receptors, the Anticholinergic activity entry is recorded as “++”.
With `CN(C)CCC(c1ccc(Br)cc1)c1ccccn1` (centres unmarked) [Brompheniramine], on H1 receptor, the Antihistaminic activity result is on record as “+++”. In the data set with muscarinic receptors, the Anticholinergic activity result is “++”.
Turning to `CN(C)CCOC(c1ccc(Cl)cc1)c1ccccn1` (centres unmarked) [Carbinoxamine], at H1 receptor, the Antihistaminic activity result is “+ to ++”. Further, in the data set with muscarinic receptors, the Anticholinergic activity result is “+++”.
Turning to `CN(C)CCC(c1ccc(Cl)cc1)c1ccccn1` (centres unmarked) [Chlorpheniramine], in data set [2], the “flushing response to red wine, chocolate and hot water challenges” value (from here on “flushing response to red wine”) is “did not affect the flushing response”. Also, the “sedative action of absorbed alcohol” value in the data set on alcohol-induced flushing [3] (in vivo) was “potentiates the sedative action of the alcohol absorbed”. Moreover, the “rise in skin oxygen tension after sherry” value in the data set with alcohol-induced flushing [3] was “did not affect the rise in skin oxygen tension”.
As for `CN/C(=N/CCSCc1nc[nH]c1C)NC#N` [Cimetidine], the “Peak Plasma Concentration” value in data set [4] (300 mg dose, dose dependent) is 0.7 to 3.2 µg/mL. Moreover, in data set [4] (IV), the “Elimination, Urine, Unchanged, IV” value is reported as 75% and the “Peak Plasma Concentration” value is on record as “(3.5-7.5 IV) mcg/ml”. Moreover, in [4] (in vivo), the Bioavailability is on record as 60-70%; the “Elimination, Metabolized” value was 30-40%; the “Protein Binding” value is given as 13-25%; the “Time to Peak Plasma Concentration” value is 0.75 to 1.5 h. Besides, in [4] (in vivo), the “Volume of Distribution” value is 0.8 to 1.2 L/kg and the “removal by hemodialysis or peritoneal dialysis” value was “not significantly removed by hemodialysis or peritoneal dialysis”. Further, in data set [4], the Half-life entry is listed as “≈2^2 hrs”; the “Elimination, Urine, Unchanged, Oral” value is 48%; the “effect of food on absorption” value was “unaffected by food”. For the same molecule, the “flushing response to red wine” value in data set [2] is “blocked the flushing responses to red wine and chocolate, but not to hot water”. Further, the “effect on hepatic oxidative metabolism” value in the data set with cytochrome P450 enzymes is listed as “inhibits hepatic oxidative metabolism by most cytochrome P450 enzymes”. Further, the “rise in skin oxygen tension after sherry” value in the data set with alcohol-induced flushing [3] is listed as “did noticeably reduce the increase in oxygen concentration”.
With `CN(C)CC[C@@H](c1ccc(Cl)cc1)c1ccccn1` [Dexchlorpheniramine], in data set [5], the “interaction with an MAOI” value is listed as “may cause severe hypotension”.
As for `NC(N)=Nc1nc(CSCCC(N)=NS(N)(=O)=O)cs1` [Famotidine], in [4] (40 mg dose, dose dependent), the “Peak Plasma Concentration” value was 0.076 to 0.1 µg/mL. The “Elimination, Urine, Unchanged, IV” value in data set [4] (IV) was 65-70%. In [4] (in vivo), the Bioavailability is 40-45%; the “Elimination, Metabolized” value was 30-35%; the “Protein Binding” value is 15-20%; the “Time to Peak Plasma Concentration” value was 1 to 3 h. For the same molecule, in data set [4] (in vivo), the “Volume of Distribution” value is 1.1 to 1.4 L/kg. In [4], the Half-life is 2.5-3.5^3 hrs and the “Elimination, Urine, Unchanged, Oral” value is recorded as 25-30%. Besides, in the data set on cytochrome P450 enzymes, the “effect on hepatic oxidative metabolism” value is listed as “do not seem to interfere with hepatic oxidation”.
Consider `CCOC(=O)N1CCC(=C2c3ccc(Cl)cc3CCc3cccnc32)CC1` [Loratadine, ethyl 4-(8-chloro-5,6-dihydro-11H-benzo[5,6]cyclohepta[1,2-b]pyridin-11-ylidene)-1-piperidinecarboxylate], for which the potassium rectifier currents result in data set [6] was “inhibit the potassium rectifier currents”.
Take `CN1CCC(CN2c3ccccc3Sc3ccccc32)C1` (centres unmarked) [Methdilazine]: the Antihistaminic activity entry on H1 receptor is given as “++ to +++”. Further, in the data set on muscarinic receptors, the Anticholinergic activity result was “+++”.
In the case of `CNC(=C[N+](=O)[O-])NCCSCc1csc(CN(C)C)n1` [Nizatidine], in [4] (150 mg dose, dose dependent), the “Peak Plasma Concentration” value is 0.7 to 1.8 µg/mL. Also, in data set [4] (300 mg dose, dose dependent), the “Peak Plasma Concentration” value was 1.4 to 3.6 µg/mL. Also, the “Plasma concentrations 12 hours after administration” value in data set [4] (12 hours after administration) was “less than 10 mcg/L”. In data set [4] (in vivo), the Bioavailability was greater than 90%; the “Elimination, Metabolized” value was less than 18%; the “Protein Binding” value is reported as “≈35%”; the “Time to Peak Plasma Concentration” value is 0.5 to 3 h. Also, in [4] (in vivo), the “Volume of Distribution” value is 0.8 to 1.5 L/kg. Also, in [4], the Half-life was 1-2^3 hrs and the “Elimination, Urine, Unchanged, Oral” value is recorded as 60%.
As for `CN1CCC2=C(C1)C(c1ccccc1)c1ccccc12` (centres unmarked) [Phenindamine], the Antihistaminic activity entry on H1 receptor is given as “++”. For the same molecule, the Anticholinergic activity entry in the data set with muscarinic receptors is “++”.
In the case of `CNC(=C[N+](=O)[O-])NCCSCc1ccc(CN(C)C)o1` [Ranitidine], in [4] (IM), the Bioavailability result was “(90-100 IM) %”, the “Peak Plasma Concentration” value is given as “(0.58 IM) mcg/ml” and the “Time to Peak Plasma Concentration” value is listed as “(0.25 IM) hrs”. In addition, the “Elimination, Urine, Unchanged, IV” value in data set [4] (IV) is listed as 68-79%. For the same molecule, in data set [4] (in vivo), the Bioavailability is 50-160%; the “Elimination, Metabolized” value is recorded as less than 10%; the “Protein Binding” value is 15%; the “Time to Peak Plasma Concentration” value was 1 to 3 h. The “Volume of Distribution” value in data set [4] (in vivo) is 1.2 to 1.9 L/kg. Moreover, in data set [4], the Half-life is recorded as 2-3^3 hrs; the “Elimination, Urine, Unchanged, Oral” value is reported as 30-35%; the “effect of food on absorption” value was “not significantly impaired by the administration of food”. In addition, in data set [4] (no dose given, dose dependent), the “Peak Plasma Concentration” value was 0.44 to 0.55 µg/mL. The “effect on hepatic oxidative metabolism” value in the data set on cytochrome P450 enzymes is “do not seem to interfere with hepatic oxidation”.
In the case of `CC(C)(C)c1ccc(C(O)CCCN2CCC(C(O)(c3ccccc3)c3ccccc3)CC2)cc1` (centres unmarked) [Terfenadine], the “single overdose associated with serious cardiovascular adverse events” value in the data set on QT interval is reported as no less than 360 mg. Further, in data set [1] (in vivo), the “dose eliminated via the urine” value is reported as 40%, the elimination half-life is 20 h and the “fecal excretion of the dose” value is 60%. For the same molecule, the “time to peak plasma levels” value in [1] is 2 h.
Regarding `CC(CN(C)C)CN1c2ccccc2Sc2ccccc21` (centres unmarked) [Trimeprazine], the Antihistaminic activity entry at H1 receptor is recorded as “++ to +++”. Also, the Anticholinergic activity entry with muscarinic receptors is given as “+++”.
As for `CN(C)CCN(Cc1ccccc1)c1ccccn1` [Tripelennamine], on H1 receptor, the Antihistaminic activity entry is “+ to ++”. In addition, the Anticholinergic activity result in the data set on muscarinic receptors is listed as “±”.
As for `Cc1ccc(/C(=C\CN2CCCC2)c2ccccn2)cc1` [Triprolidine], at H1 receptor, the Antihistaminic activity result was “++ to +++”. Moreover, the Anticholinergic activity result in the data set with muscarinic receptors is “++”.
As for `CC(=O)Oc1ccccc1C(=O)O` [aspirin, acetylsalicylic acid], the Body sway entry in the data set on alcohol-induced flushing [7] (both groups of subjects) is “reduced”. Moreover, in the data set on alcohol-induced flushing [7] (flushing group), the “alcohol induced increase in heart rate” value was “reduced” and the Facial flushing result is “markedly reduced”. Moreover, the Facial flushing result in the data set on alcohol-induced flushing [7] (non-flushing Occidentals) is given as “slightly increased”.
On to `Clc1cccc(Cl)c1N=C1NCCN1` [clonidine], for which the “flushing response to red wine” value in data set [2] is “blocked the flushing responses to red wine and chocolate, but not to hot water”.
Turning to `Clc1ccc2c(c1)CCc1cccnc1C2=C1CCNCC1` [desloratadine, descarboethoxyloratadine], the “dose dependence of pharmacokinetics” value in data set [8] is reported as “independent of dose”.
As to `C=CCN1CC[C@]23c4c5ccc(O)c4O[C@H]2C(=O)CC[C@@]3(O)[C@H]1C5` [naloxone], the “alcohol-induced rosacea flushing (AIRF)” value in data set [9] is on record as “blocked”. Moreover, the “impairment by ethanol (typing errors)” value in the data set on ethanol intoxication (CPAF group) was “reversed this effect”; in the data set with ethanol intoxication (non-flushing group) it was “no effect”.
